Assays:
[1] = biological target: T1, Potassium channel subfamily K member 2 (Rattus norvegicus, UniProt Q920B6); assay: Inhibition of rat TREK1 expressed in CHO cells assessed as reversible current depression; assay type: cell-based
T1 sequence (Q920B6 whole entry): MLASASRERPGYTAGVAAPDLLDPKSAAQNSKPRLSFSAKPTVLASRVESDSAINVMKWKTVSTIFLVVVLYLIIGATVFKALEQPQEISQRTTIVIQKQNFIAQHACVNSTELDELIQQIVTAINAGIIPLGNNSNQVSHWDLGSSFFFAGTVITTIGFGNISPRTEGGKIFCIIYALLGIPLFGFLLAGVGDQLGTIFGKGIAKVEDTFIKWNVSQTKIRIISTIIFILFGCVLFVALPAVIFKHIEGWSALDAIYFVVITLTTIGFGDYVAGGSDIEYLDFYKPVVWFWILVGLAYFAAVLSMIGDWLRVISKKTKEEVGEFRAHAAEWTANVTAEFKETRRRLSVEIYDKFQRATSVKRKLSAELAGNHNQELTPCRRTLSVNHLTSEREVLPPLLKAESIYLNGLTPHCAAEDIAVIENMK

[2] = biological target: T2, Potassium channel subfamily K member 2 (Rattus norvegicus) (UniProt Q920B6); details: CHO, 10 uM
T2 sequence (whole entry): T1 sequence (Q920B6 whole entry)
Description: Inhibition of rat TREK1 expressed in CHO cells assessed as reversible current depression at 10 uM

[3] = biological target: T3, Potassium channel subfamily K member 2 (Homo sapiens, UniProt O95069); assay: Inhibition of human TREK1 expressed in HEK293 cells assessed as reduction in channel currents; assay type: cell-based
T3 sequence (O95069 whole entry): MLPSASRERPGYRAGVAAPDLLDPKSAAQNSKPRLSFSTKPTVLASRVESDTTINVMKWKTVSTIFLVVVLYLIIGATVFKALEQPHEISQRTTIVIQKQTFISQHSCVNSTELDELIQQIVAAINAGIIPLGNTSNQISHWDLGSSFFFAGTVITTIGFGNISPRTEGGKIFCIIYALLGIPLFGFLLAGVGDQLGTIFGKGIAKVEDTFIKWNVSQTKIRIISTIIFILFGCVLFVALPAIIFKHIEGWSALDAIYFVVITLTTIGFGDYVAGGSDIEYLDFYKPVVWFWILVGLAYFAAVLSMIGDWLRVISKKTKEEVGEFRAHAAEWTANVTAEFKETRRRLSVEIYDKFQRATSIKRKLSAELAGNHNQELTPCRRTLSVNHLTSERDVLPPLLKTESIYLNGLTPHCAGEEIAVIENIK

[4] = biological target: T3, Potassium channel subfamily K member 2; assay: Inhibition of human TREK1 expressed in oocytes assessed as reversible current depression; assay type: cell-based
[5] = biological target: T4, Potassium channel subfamily K member 10 (Homo sapiens, UniProt P57789); assay: Inhibition of TREK2 (unknown origin) expressed in oocytes assessed as reduction in channel currents; assay type: cell-based
T4 sequence (P57789 whole entry): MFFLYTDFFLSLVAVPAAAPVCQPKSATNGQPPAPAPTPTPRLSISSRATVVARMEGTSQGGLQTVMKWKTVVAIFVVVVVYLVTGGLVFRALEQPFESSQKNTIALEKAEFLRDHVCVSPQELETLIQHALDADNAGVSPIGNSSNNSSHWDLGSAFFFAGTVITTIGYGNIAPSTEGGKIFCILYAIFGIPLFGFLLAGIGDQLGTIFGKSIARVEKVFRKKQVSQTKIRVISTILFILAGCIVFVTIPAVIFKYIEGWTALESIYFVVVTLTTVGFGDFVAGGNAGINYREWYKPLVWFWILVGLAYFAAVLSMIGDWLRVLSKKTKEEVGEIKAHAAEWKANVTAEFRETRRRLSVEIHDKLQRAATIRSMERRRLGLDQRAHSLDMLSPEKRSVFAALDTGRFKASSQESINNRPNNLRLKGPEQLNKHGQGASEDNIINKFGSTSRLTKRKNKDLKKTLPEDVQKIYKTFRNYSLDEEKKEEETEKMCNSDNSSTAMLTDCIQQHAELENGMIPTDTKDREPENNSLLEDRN

[6] = biological target: T4, Potassium channel subfamily K member 10; assay: Inhibition of TREK2 (unknown origin) expressed in HEK293 cells assessed as reduction in channel currents; assay type: cell-based

IC50 [1] | inhibition [2] | IC50 [3] | IC50 [4] | IC50 [5] | IC50 [6] | SMILES
0.06 µM | 70% | – | – | – | – | CCCC[C@@H]1OC(=O)c2ccccc21 [(3S)-BUTYLPHTHALIDE]
– | – | 1.6 µM | 20.3 µM | 24 µM | 7.6 µM | COc1ccccc1OCCNCC(O)COc1cccc2[nH]c3ccccc3c12 (stereo unspecified) [CARVEDILOL]
